# From patent US10844049B2, “GLP-1R agonists and uses thereof” (QILU REGOR THERAPEUTICS INC., priority 2018, dated 2020)
# Experiments:
# [1] = Monkey oral pharmacokinetic (PK) study, non-naïve Cynomolgus male monkeys; type: in vivo; settings: for plasma concentration-time profile: PO, over about 24 hours after oral dosing; for Tmax / bioavailability: male, cynomolgus monkey, plasma; for Tmax / bioavailability / AUC0-24 h / Cmax: oral
# Procedure: (§1) Appropriate volumes of vehicles (e.g., 2% Tween 80 (v:v) and 0.5% MC (w:v) in saline or 0.5% MC (w:v) in water were then added into the mortar containing the ground compounds, and the mixture was then grinded with a pestle until a homogeneous paste was formed. Additional appropriate volumes of vehicles were added into the mortar containing each compound, and the mixture was grinded further with the pestle until a homogeneous suspension was obtained.
# (§2) The rest of the vehicle was added to make up the final dosing volume of about 1 mg/mL or 2 mg/mL (i.e., final dosing volume of about 5 mL/kg), and the homogenous suspension was continuously stirred prior to and during the dosing.
# (§3) Non-naïve Cynomolgus male monkeys (n=3/test article; sourced from Hainan Jingang Biotech Co., Ltd., Nayang Xmtan, Fucheng Town, Qiongshan District, Haikou City, Hainan Province, China); or non-naïve aged, obese, and diabetic male Macaca fascicularis monkeys (n=3/test article, Source: Kunming Biomed International Colony) were used in pre-clinical in vivo studies. All non-naïve Cynomolgus male monkeys were approximately 3 to 5 years old, weighed about 2.5-5 kg, and were within ±20% of the average body weight. All non-naïve aged, obese, and diabetic male Macaca fascicularis monkeys were approximately 12 to 20 years old, weighed about >8-12 kg.
# (§4) All animals were fasted overnight before dosing, and the food were supplied approximately 4 hours post dose (with free access to water all the time).
# (§5) Animals were restrained at designated time points for blood sampling. Approximately 500 μL of blood samples was taken via cephalic or saphenous vein into EDTA-K2 tubes. Blood samples were put on wet ice before centrifugation.
# (§6) For oral administration (PO) of either Dose 1 or Dose 2: blood samples were collected at pre-dose, and at 15 min, 30 min, 1 hr, 2 hr, 4 hr, (6 hr for compounds 19 and 28 with cynomolgus monkeys only), 8 hr, 12 hr, and 24 hr post dose (i.e., 9 or 10 total time points for each compound at each dose).
# (§7) The blood samples were centrifuged at approximately 2,000-4,000 rpm for about 10-15 minutes at 2-8′C, and each resulting plasma portion was then transferred into an individual tube.
# (§8) LC-MS/MS methods were developed, and bioanalysis for the test articles in monkey plasma was performed according to the developed LC-MS/MS methods.
# Undiluted plasma samples: An aliquot of 20-50 μL plasma sample was mixed with 200 μL of ACN or MeOH containing one of the internal standards (IS, e.g., Diclofenac or Terfenadine). The mixture was then vortexed for about 1-5 min, and centrifuged at about 4,000-5,800 rpm for about 10-15 min. An aliquot of 1 μL supernatant was used for LC-MS/MS analysis.
# (§9) Pharmacokinetics parameters, including area under the curve (AUC0-t), maximum plasma concentration (Cmax), time to reach maximum plasma concentration (Tmax), oral bioavailability (F %), etc., were calculated using Phoenix software (Version 6.4) and non-compartment model.
# [2] = Monkey oral pharmacokinetic (PK) study, aged, obese, and diabetic male monkeys; type: in vivo; settings: Dose 2, non-naïve aged, obese, and diabetic male Macaca fascicularis monkeys
# Procedure: as §1, §2, §3, §4, §5, §6, §7, §8
# Undiluted plasma samples: An aliquot of 20-50 μL plasma sample was mixed with 200 μL of ACN or MeOH containing one of the internal standards (IS, e.g., Diclofenac or Terfenadine). […]
# as §9
plasma concentration-time profile [1],Tmax ([1]; Dose 1) [h],bioavailability ([1]; Dose 1) [%],AUC0-24 h ([1]; Dose 1) [Arbitrary units],Cmax ([1]; Dose 1) [Arbitrary unit],AUC0-24 h [2] [Arbitrary units],Cmax [2] [Arbitrary unit],"Tmax ([2]; cynomolgus monkey, plasma) [h]","bioavailability ([2]; cynomolgus monkey, plasma) [%]",Tmax ([1]; Dose 2) [h],bioavailability ([1]; Dose 2) [%],AUC0-24 h ([1]; Dose 2) [Arbitrary units],Cmax ([1]; Dose 2) [Arbitrary unit],Structure (SMILES)
sustained at a more constant level,2.7,10.8,1130,125,2470,413,8.8,15.5,,,,,"N#Cc1ccc(COc2cccc(C3=CCN(Cc4nc5ccc(C(=O)O)cc5n4C[C@@H]4CCO4)CC3)n2)c(F)c1 [Compound 19, (S)-2-((4-(6-(4-cyano-2-fluorobenzyloxy)pyridin-2-yl)-5,6-dihydropyridin-1(2H)-yl)methyl)-1-(oxetan-2-ylmethyl)-1 h-benzo[d]imidazole-6-carboxylic add]"
sustained at a more constant level,3.3,56.1,24900,3910,,,,,,,,,"O=C(O)c1ccc2nc(CN3CC=C(c4cccc(OCc5ccc(Cl)cc5F)c4)CC3)n(C[C@@H]3CCO3)c2c1 [Compound 28, (S)-2-((4-(3-((4-chloro-2-fluorobenzyl)oxy)phenyl)-3,6-dihydropyridin-1(2H)-yl)methyl)-1-(oxetan-2-ylmethyl)-1 h-benzo[d]imidazole-6-carboxylic add]"
sustained at a more constant level,,,,,,,,,1.2,41,21800,3380,"O=C(O)c1ccc2nc(CN3CC=C(c4ccc(F)c(OCc5ccc(Cl)cc5F)c4)CC3)n(C[C@@H]3CCO3)c2c1 [Compound 29, (S)-2-((4-(3-((4-chloro-2-fluorobenzyl)oxy)-4-fluorophenyl)-3,6-dihydropyridin-1(2H)-yl)methyl)-1-(oxetan-2-ylmethyl)-1 h-benzo[d]imidazole-6-carboxylic acid]"
sustained at a more constant level,,,,,,,,,4,9.93,1500,184,"N#Cc1ccc(COc2cccc(C3=CCN(Cc4nc5ccc(C(=O)O)nc5n4C[C@@H]4CCO4)CC3)n2)c(F)c1 [Compound 225, (S)-2-((6-((4-cyano-2-fluorobenzyl)oxy)-3′,6′-dihydro-[2,4′-bipyridin]-1′(2′H)-yl)methyl)-3-(oxetan-2-ylmethyl)-3H-imidazo[4,5-b]pyridine-5-carboxylic add]"
